Experimental data: patent publication US9080144B2, “Compositions and methods for promoting liposomal and cellular adhesion” (priority 2012, dated 2015)
“Also recorded” adds a separate entry of the source.

How the values were obtained:
fibroblasts (fbs) [1] = experiment: Fluorescence labeling optimization of DOTAP concentration for liposome-cell fusion; format: cell-based; details: keto-LUVs with 0.5-5% DOTAP, 5% ketone; fbs 4 h; rhod-oxyamine 0.7 mM 2 h
Experimental: Cell-surface labeling. In an embodiment of the present application, oxime chemistry is used to tailor and fluorescently label cell surfaces via a novel liposome fusion strategy. As mentioned, cationic lipid, DOTAP, was incorporated within keto- and oxyamine-LUVs to initiate electrostatic destabilization and subsequent fusion to the cell membrane. As such, the minimum DOTAP concentration required to facilitate liposome-cell fusion was determined to be […] through fluorescence labeling optimization. Keto-LUVs were generated using DOTAP and POPC concentrations that ranged from 0.5% to 5% and 90% to 94.5%, respectively, while maintaining a 5-% ketone concentration. These liposomes were incubated with fibroblasts (fbs) for 4 h, conjugated with an oxyamine-tethered rhodamine (rhod-oxyamine, 8) (0.7 mM, 2 h), and the cell fluorescence intensities were then compared. […] The liposomes for liposome-cell fusion events were approximately ˜60 nm in diameter, similar to those used for the liposome-liposome fusion characterization.

fibroblasts (fbs) [2] = experiment: Cell-surface engineering: fluorescent labeling of fbs by liposome fusion and oxime conjugation; format: cell-based, mouse; details: liposome fusion 2 h plus complementary oxime dye
Experimental: Two cell-surface engineering methods were employed to fluorescently label fbs. In this first method, a solution of oxyamine vc-LUVs (6, 3 mM) was incubated with a ketone-functionalized fluorescein (7, 0.15 mM, 1 eq, 2 h), forming fluorescently labeled liposomes. The liposomes were then added to fbs in culture for 2 h. After fusion, the cells were washed with PBS (3×2 mL), trypsinized (1 mL, 5 min, 37° C., 5% CO2), diluted with CBS-containing media (˜10^2/mL), and seeded to a glass substrate (1×1 cm^2, 2 h). The cells were then imaged under a fluorescence microscope with an exposure time of 1/1200 s. In the second method, a solution of keto-LUVs (5, 200 μL, 0.6 mM) was added to fbs in culture for 2 h, resulting in membrane fusion and subsequent display of ketones from the cell surface (9). Rhod-oxyamine (8, 100 μL, 0.7 mM in H2O) was then added the cells for 2 h. After oxime formation, the fbs were washed with PBS (3×2 mL), trypsinized (1 mL, 5 min, 37° C., 5% CO2), diluted with CBS-containing media (˜10^2/mL), and seeded to a glass substrate (1×1 cm^2, 2 h). The cells were then imaged under a fluorescence microscope with an exposure time of 1/1200 s (see FIG. 3).

Row | SMILES | minimum DOTAP concentration required to facilitate liposome-cell fusion (fibroblasts (fbs) [1]) [%] | fluorescent labeling of fbs (microscopy) (fibroblasts (fbs) [2])
1 | CCCCCCCC/C=C\CCCCCCCC(=O)OCC(C[N+](C)(C)C)OC(=O)CCCCCCC/C=C\CCCCCCCC (centres unmarked) [DOTAP, 1,2-dioleoyl-3-trimethylammonium-propane] | 2 | 
2 | CCN(CC)c1ccc2c(-c3ccc(S(=O)(=O)NCCCCNC(=O)CON)cc3S(=O)(=O)[O-])c3ccc(=[N+](CC)CC)cc-3oc2c1 [compound 8, 5-(N-(4-(2-(aminooxy)acetamido)butyl)sulfamoyl)-2-(6-(diethylamino)-3-(diethyliminio)-3H-xanthen-9-yl)benzenesulfonate] |  | fluorescence labeling of cells; also recorded: red fluorescent labeling of the cells
